Test results reported in US10941137B2, “Difluoromethyl-phenyl triazoles” (Boehringer Ingelheim International GmbH, priority 2018, dated 2021).

Tests used:
α5β2γ2 GABAA receptor = molecular target: T1, α5β2γ2 GABAA receptor (Homo sapiens, UniProt P18507+P31644); assay: Assay B: modulation of α5β2γ2 GABAA receptor, two-electrode voltage clamp in oocytes; format: cell-based; settings: for EC50: oocytes, TEVC, co-application with GABA 0.5 μM (EC5-20), read-out: Assay B: GABAA α5β3γ2 EC50
T1 sequence (P31644 32-462): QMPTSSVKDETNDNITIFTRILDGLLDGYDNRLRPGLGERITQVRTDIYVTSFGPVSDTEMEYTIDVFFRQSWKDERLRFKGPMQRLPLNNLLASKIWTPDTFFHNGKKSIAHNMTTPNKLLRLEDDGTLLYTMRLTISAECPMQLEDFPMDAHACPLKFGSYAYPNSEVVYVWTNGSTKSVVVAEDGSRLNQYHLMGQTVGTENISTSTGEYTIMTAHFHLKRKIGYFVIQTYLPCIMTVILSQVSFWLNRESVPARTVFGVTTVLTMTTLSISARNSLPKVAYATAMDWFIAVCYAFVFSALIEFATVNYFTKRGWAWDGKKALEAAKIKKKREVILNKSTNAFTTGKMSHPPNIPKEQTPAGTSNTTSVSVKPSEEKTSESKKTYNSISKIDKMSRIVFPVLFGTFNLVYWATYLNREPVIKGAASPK
T1 sequence (P18507 40-376 limits assumed): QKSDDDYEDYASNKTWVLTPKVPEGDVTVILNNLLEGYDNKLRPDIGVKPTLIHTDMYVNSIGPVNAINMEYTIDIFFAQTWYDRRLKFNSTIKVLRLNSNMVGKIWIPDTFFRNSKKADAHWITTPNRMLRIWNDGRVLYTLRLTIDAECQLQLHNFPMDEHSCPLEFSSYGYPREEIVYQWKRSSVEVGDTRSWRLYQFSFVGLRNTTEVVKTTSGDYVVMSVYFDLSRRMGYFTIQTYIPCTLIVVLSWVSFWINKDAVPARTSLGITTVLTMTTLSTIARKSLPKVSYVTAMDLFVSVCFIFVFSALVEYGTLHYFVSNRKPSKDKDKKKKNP
Procedure: Assay B: In vitro evaluation of modulation of α5β2γ2 GABAA receptor.
Modulatory efficacy of compounds of formula (I) is determined electrophysiological recordings in oocytes using the two-electrode voltage clamp (TEVC) technique. Oocytes are injected with cRNA for human GABAA receptor subunits α5, β2 and γ2 in a 3:1:3 ratio and modulatory efficacy is evaluated by co-applications with a submaximal EC5-20 GABA concentration (0.5 μM) termed GABA control. As a standard, the compounds are tested in five concentrations (3.16, 0.316, 0.0316, 0.00316 and 0.000316 μM) on each oocyte starting with the lowest concentration. Background subtracted peak current amplitudes are normalized to the respective GABA control current, converted to % change and depicted +/−S.E.M. as a function of increasing compound concentrations. Plotted datapoints are fitted to the empirical Hill equation using non-linear regression. 95% confidence intervals for maximal efficacy (Bottom) and potency (Log EC50) are derived from this fitting routine.

human MDR1 P-gp = assay: Efflux in MDCK cells transfected with the human MDR1 gene (MDCK-PGP permeability); format: in vitro ADME, canine; settings: dog, pH 7.4, 37° C.; for efflux ratio: PEBA/PEAB; for Papp A→B: apical-to-basal apparent permeability (PEAB)
Procedure: Assessment of Efflux in Madin-Darby Canine Kidney (MDCK) Cells Transfected with the 30 Human MDR1 Gene to Assess Brain Penetration (Drug Metabolism and Disposition February 2008, 36 (2) 268-275; DOI: https://doi.org/10.1124/dmd.107.017434) Apparent permeability coefficients (PE) of the compounds across the MDCK-MDR1 cell monolayers are measured (pH 7.4, 37° C.) in apical-to-basal (AB) and basal-to-apical (BA) transport direction. AB permeability (PEAB) represents drug absorption from the blood into the 35 brain and BA permeability (PEBA) drug efflux from the brain back into the blood via both passive permeability as well as active transport mechanisms mediated by efflux and uptake transporters that are expressed on the MDCK-MDR1 cells, predominantly by the overexpressed human MDR1 P-gp. The compounds are assigned to permeability/absorption classes by comparison of the AB permeabilities with the AB permeabilities of reference compounds with known in vitro permeability and oral absorption in the human. Identical or similar permeabilities in both transport directions indicate passive permeation, vectorial permeability points to additional active transport mechanisms. Higher PEBA than PEAB indicates the involvement of active efflux mediated by MDR1 P-gp. Active transport is concentration-dependently saturable.
MDCK-MDR1 cells (1-2×10e5 cells/1 cm2 area) are seeded on filter inserts (Costar transwell polycarbonate or PET filters, 0.4 μm pore size) and cultured (DMEM) for 7 days. Subsequently, the MDR1 expression is boosted by culturing the cells with 5 mM sodium butyrate in full medium for 2 days. Compounds are dissolved in appropriate solvent (like DMSO, 1-20 mM stock solutions). Stock solutions are diluted with HTP-4 buffer (128.13 mM NaCl, 5.36 mM KCl, 1 mM MgSO4, 1.8 mM CaCl2, 4.17 mM NaHCO3, 1.19 mM Na2HPO4×7H2O, 0.41 mM NaH2PO4xH2O, 15 mM HEPES, 20 mM glucose, 0.25% BSA, pH 7.4) to prepare the transport solutions (0.1-300 μM compound, final DMSO <=0.5%). The transport solution (TL) is applied to the apical or basolateral donor side for measuring A-B or B-A permeability (3 filter replicates), respectively. The receiver side contains the same buffer as the donor side. Samples are collected at the start and end of experiment from the donor and at various time intervals for up to 2 hours also from the receiver side for concentration measurement by HPLC-MS/MS or scintillation counting. Sampled receiver volumes are replaced with fresh receiver solution.

[1] = Metabolic stability in human liver microsomes (Human MST); format: in vitro ADME; settings: pooled human liver microsomes, pH 7.6; human liver microsomes 1 mg/mL, 1 μM compound, NADPH 1 mM, 37° C.; read-out: Human MST t1/2
Procedure: Assessment of Metabolic Stability in Human Liver Microsomes (Human MST) The metabolic stability of the compounds according to the invention may be investigated as follows: The metabolic degradation of the test compound is assayed at 37° C. with pooled human liver microsomes. The final incubation volume of 100 μL per time point contains TRIS buffer pH 7.6 at room temperature (0.1 M), MgCl2 (5 mM), microsomal protein (1 mg/mL) and the test compound at a final concentration of 1 μM. Following a short pre-incubation period at 37° C., the reactions are initiated by addition of beta-nicotinamide adenine dinucleotide phosphate, reduced form (NADPH, 1 mM), and terminated by transferring an aliquot into solvent after different time points. After centrifugation (10000 g, 5 min), an aliquot of the supernatant is assayed by LCMS/MS for the amount of parent compound. The half-life (t½) is determined by the slope of the semi-logarithmic plot of the concentration-time profile.

[2] = molecular target: T2, human GABAA α5β3γ2s receptor (Homo sapiens, UniProt P18507+P31644); assay: Assay A: in vitro inhibition of 3H-flumazenil binding, HEK cells expressing human GABAA α5β3γ2s receptor; settings: 3H-flumazenil 1 nM, HEK-293 membranes, 40 min at 2° C.; Ki from IC50 by Cheng and Prusoff
T2 sequence (P18507 1-475): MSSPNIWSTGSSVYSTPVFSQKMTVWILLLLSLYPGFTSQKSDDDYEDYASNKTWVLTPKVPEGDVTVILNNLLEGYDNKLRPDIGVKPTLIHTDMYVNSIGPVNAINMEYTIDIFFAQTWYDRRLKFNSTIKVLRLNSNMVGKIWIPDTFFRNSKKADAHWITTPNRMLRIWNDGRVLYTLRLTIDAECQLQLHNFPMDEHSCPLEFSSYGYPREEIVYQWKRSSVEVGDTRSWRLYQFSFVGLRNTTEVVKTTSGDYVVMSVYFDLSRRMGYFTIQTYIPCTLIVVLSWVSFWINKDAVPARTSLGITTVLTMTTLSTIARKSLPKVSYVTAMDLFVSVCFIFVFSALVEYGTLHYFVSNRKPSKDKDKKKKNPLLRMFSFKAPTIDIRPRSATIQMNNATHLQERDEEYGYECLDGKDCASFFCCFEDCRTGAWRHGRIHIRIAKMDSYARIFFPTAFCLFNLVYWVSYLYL
T2 sequence (P31644 1-462): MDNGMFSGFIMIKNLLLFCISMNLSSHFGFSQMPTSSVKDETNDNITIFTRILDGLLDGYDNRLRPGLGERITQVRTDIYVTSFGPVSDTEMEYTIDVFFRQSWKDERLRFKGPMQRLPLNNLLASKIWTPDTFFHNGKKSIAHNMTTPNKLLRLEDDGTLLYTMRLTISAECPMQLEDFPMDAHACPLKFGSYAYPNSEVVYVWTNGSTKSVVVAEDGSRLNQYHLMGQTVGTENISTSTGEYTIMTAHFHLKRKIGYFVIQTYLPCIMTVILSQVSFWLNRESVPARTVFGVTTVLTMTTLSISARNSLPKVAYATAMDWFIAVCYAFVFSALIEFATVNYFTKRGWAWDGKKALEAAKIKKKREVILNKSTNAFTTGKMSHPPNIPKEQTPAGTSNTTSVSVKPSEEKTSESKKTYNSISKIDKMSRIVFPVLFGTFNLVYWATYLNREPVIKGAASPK
Procedure: HEK-293 cell lines with stable expression of recombinant human GABAA α5β3γ2s receptors (plasmid H46/E9/B10) are seeded in T175 polystyrene flasks or roller bottles (1700 cm^2, Fisher Scientific CCI-431191), and cultured (37 C, 5% CO˜) in Dulbecco's Modified Eagle Medium (DMEM) with GlutaMAX™ supplemented with 10% fetal bovine serum and one or both of the following antibiotics: hygromycin B ([…]; γ2 subunit) or G418 (0.5 mg/ml; […]).
When the cultures reach confluency, the DMEM is removed and the cells are washed (10 ml for T175 flasks; 50 ml for roller bottles) once in Dulbecco's Phosphate Buffered Saline (DPBS). Following addition of DPBS to the cultures (10 ml for T175 flasks; 100 ml for roller bottles) for approximately 5 min cells are easily detached from the surface by shaking or tapping the flask gently. The cell suspension is transferred to Falcon tubes and centrifuged at 23,500×g for 10 min at 2° C. The pellet is washed once in 15 ml Tris-citrate buffer (50 mM, pH 7.1) using an Ultra-Turrax homogenizer and centrifuged at 2° C. for 10 min at 27,000×g. The washed pellet is re-suspended in 15 ml Tris-citrate buffer and frozen at −80° C. until the day of the binding experiment.
On the day of the experiment the cell membrane preparation is thawed and centrifuged at 2° C. for 10 min at 27,000×g. The pellet is re-suspended, using an Ultra-Turrax homogenizer in Tris-citrate buffer, to 15-50 µg protein per assay and then used for binding assays.
Non-specific binding is determined using clonazepam (1 μM, final concentration).
All dilutions of test compounds and incubation of assay are performed in glass vials/96-vial plates. […] Compounds are dissolved in 100% DMSO (10 mM stock), diluted in 48% ethanol-water, and tested in triplicate in serial 1:3 or 1:10 dilutions. When screening large numbers of compounds only one concentration of each compound is tested in single wells. Reference compounds are not included routinely, but for each experiment performed total and nonspecific binding is compared to data obtained during validation of the assay.
Binding is either terminated by rapid filtration onto
1) Whatman GF/C glass fibre filters using a Brandel Cell harvester, followed by 5 washes with 1 ml ice-cold buffer or onto 2) UniFilter GF/C glass fibre filter plates using a Tomtec cell harvester, followed by washing with approximately 5 ml ice-cold buffer.
The amount of radioactivity on the filters is determined by conventional liquid scintillation counting using a
1) Tri-Garb™ counter (PerkinElmer Life and Analytical Sciences) for separate large filters or
2) Topcount™ counter (PerkinElmer Life and Analytical Sciences) for 96-well filter plates. Specific binding is total binding minus non-specific binding.
For screening purposes n is set to 1. The IC50 value is calculated from the concentration response curves by the non-linear regression method using the curve-fitting program GraphPad Prism. […]

Row | Structure (SMILES) | Assay B: GABAA α5β3γ2 Emax vs GABA (α5β2γ2 GABAA receptor) | EC50 (α5β2γ2 GABAA receptor) | efflux ratio (human MDR1 P-gp) | Papp A→B (human MDR1 P-gp) | half-life at 1 μM [1] | Ki [2]
1 | Cc1nnn(-c2ccc(C(F)F)cc2)c1COc1ccc(-c2cnccn2)nn1 [Example 13] | -23% | 9 nM | 0.5 | 69 ×10⁻⁶ cm/s | > 2.17 h | –
2 | Cc1nnn(-c2ccc(C(F)F)cc2)c1COc1ccc(-n2nc(C#N)cc2C)nn1 [Example 34] | -4.3% | – | – | – | – | 0.035 nM
3 | Cc1nnn(-c2ccc(C(F)F)cc2)c1COc1ccc(-n2cnc(C(=O)N(C)C)c2)nn1 [Example 16] | 0% | – | – | – | > 2.17 h | 0.16 nM
4 | Cc1nnn(-c2ccc(C(F)F)cc2)c1COc1ccc(-c2ccn[nH]2)nn1 [Example 10] | -18% | 5.8 nM | 1.7 | 22.4 ×10⁻⁶ cm/s | > 2.17 h | –

Now from value to compound:

Row | Assay B: GABAA α5β3γ2 Emax vs GABA (α5β2γ2 GABAA receptor) | EC50 (α5β2γ2 GABAA receptor) | efflux ratio (human MDR1 P-gp) | Papp A→B (human MDR1 P-gp) | half-life at 1 μM [1] | Ki [2] | Structure (SMILES)
5 | -12% | 2 nM | – | – | – | 0.27 nM | Cc1nnn(-c2ccc(C(F)F)cc2)c1COc1ccc(-n2cnc([S+](C)[O-])c2)nn1 (stereo not shown) [Example 23]
6 | -25% | 5.5 nM | 0.6 | 68.7 ×10⁻⁶ cm/s | > 2.17 h | – | Cc1nnn(-c2ccc(C(F)F)cc2)c1COc1ccc(-n2cncn2)nn1 [Example 28, 3-({1-[4-(difluoromethyl)phenyl]-4-methyl-1H-1,2,3-triazol-5-yl}methoxy)-6-(1H-1,2,4-triazol-1-yl)pyridazine]
7 | -23.3% | 1.5 nM | 2.6 | 18.1 ×10⁻⁶ cm/s | > 2.17 h | – | Cc1nnn(-c2ccc(C(F)F)cc2)c1COc1ccc(-n2cnc(C#N)c2)nn1 [Example 1, 1-[6-({1-[4-(difluoromethyl)phenyl]-4-methyl-1H-1,2,3-triazol-5-yl}methoxy)pyridazin-3-yl]-1H-imidazole-4-carbonitrile]
